Assay results published in ChEMBL document CHEMBL4837257, “Discovery of the Oxadiazine FRM-024: A Potent CNS-Penetrant Gamma Secretase Modulator” (J Med Chem, 2021).

Experiments:
Rattus norvegicus [1] = test: In vivo modulation of gamma secretase in rat assessed as reduction in Abeta42 levels in CSF at 30 mg/kg, po measured at 9 hrs by ELISA relative to control; format: functional, Cerebrospinal fluid; parameters: scale not given: the % may be the effect or the level left
Rattus norvegicus [2] = test: In vivo modulation of gamma secretase in rat assessed as reduction in Abeta42 levels in brain at 30 mg/kg, po measured after 6 hrs by ELISA relative to control; format: functional; parameters: scale not given: the % may be the effect or the level left
[3] = Clearance in rat blood relative to hepatic blood flow; format: ADME, tissue-based
Homo sapiens = species on record: Homo sapiens; test: Inhibition of sodium channel (unknown origin) at 10 uM relative to control
Rattus norvegicus [4] = test: In vivo modulation of gamma secretase in rat assessed as reduction in Abeta40 levels in brain at 30 mg/kg, po measured at 16 hrs by ELISA relative to control; format: functional; parameters: scale not given: the % may be the effect or the level left

CL [3]: < 20%
inhibition (Homo sapiens): > 50%
SMILES: COc1nc(C2=NOC(C3CC3)C(c3ccc(Cl)cc3)N2)ccc1-n1cnc(C)c1 (stereo not given)
Activity (Rattus norvegicus [1]): 91%
Activity (Rattus norvegicus [2]): 56%
Activity (Rattus norvegicus [4]): 36%
